# Measured values reported in ChEMBL document CHEMBL3132855, “Synthesis and antiviral evaluation of 4-(1,2,3-triazol-1-yl)thymidines” (Medchemcomm, 2014).
# Active and inactive are the calls of the source. No cut-off for these calls is given here.
# Legend:
# Hepatitis C virus = assay: Antiviral activity against HCV1b infected in human HuH-7 cells assessed as inhibition of viral replication at 10 uM after 3 days by luciferase assay; assay type: functional, organism-based; settings: Hepacivirus hominis, genotype 1b
# West Nile virus = assay: Antiviral activity against West Nile virus infected in baby hamster BHK-WII RepRen1B cells assessed as inhibition of viral replication at 10 uM after 3 days by luciferase assay; assay type: functional, organism-based
# Influenza A virus [1] = assay: Antiviral activity against Influenza A/WSN/33 virus infected in human A549 cells assessed as inhibition of virus-induced cytopathic effect at 10 uM after 5 days by neutral red assay; assay type: functional; settings: A/WSN/1933(H1N1), A549, 120 h
# [2] = Cytotoxicity against human CEM-SS cells assessed as cell viability at 10 uM after 6 days by MTS assay; assay type: cell-based; settings: read-out: Activity
# [3] = tested on: Human immunodeficiency virus 1; assay: Antiviral activity against HIV1 3B infected in human CEM-SS cells assessed as inhibition of virus-induced cytopathic effect at 10 uM after 6 days by MTS assay; assay type: functional; settings: Human immunodeficiency virus 1, 3B, 144 h
# Influenza A virus [4] = assay: Antiviral activity against Influenza A/WSN/33 virus infected in MDCK cells assessed as inhibition of virus-induced cytopathic effect at 10 uM after 5 days by neutral red assay; assay type: functional; settings: A/WSN/1933(H1N1), 120 h
SMILES,inhibition (Hepatitis C virus),inhibition (West Nile virus),inhibition at 10 µM (Influenza A virus [1]) [%],"viability at 144 h, 10 µM [2] [%]",inhibition at 10 µM [3] [%],inhibition at 10 µM (Influenza A virus [4]) [%]
Cc1ccc(-c2cn([C@]3(CO)O[C@@H](n4cc(C)c(=O)[nH]c4=O)C[C@@H]3O)nn2)cc1,inactive,inactive,0,99,0,
Cc1cn([C@H]2C[C@H](O)[C@](CO)(n3cc(C(O)c4ccccc4)nn3)O2)c(=O)[nH]c1=O (stereo partly specified),inactive,inactive,5,100,0,
Cc1cn([C@H]2C[C@H](O)[C@](CO)(n3cc(COc4ccccc4)nn3)O2)c(=O)[nH]c1=O,inactive,inactive,10,97,0,
Cc1cn([C@H]2C[C@H](O)[C@](CO)(n3cc(CSc4ccccc4)nn3)O2)c(=O)[nH]c1=O,inactive,inactive,3.3,99,20,
Cc1cn([C@H]2C[C@H](O)[C@](CO)(n3cc(-c4ccc(Br)cc4)nn3)O2)c(=O)[nH]c1=O,inactive,inactive,18,100,60,4
Cc1cn([C@H]2C[C@H](O)[C@](CO)(n3cc(CO)nn3)O2)c(=O)[nH]c1=O,inactive,inactive,0,100,2,
CCOC(=O)C(Cc1ccc(OCc2cn([C@]3(CO)O[C@@H](n4cc(C)c(=O)[nH]c4=O)C[C@@H]3O)nn2)cc1)NC(=O)OC(C)(C)C (stereo partly specified),inactive,inactive,0,97,0,
Cc1cn([C@H]2C[C@H](O)[C@](CO)(n3cc(CON4C(=O)c5ccccc5C4=O)nn3)O2)c(=O)[nH]c1=O,inactive,inactive,3.7,99,1,
Cc1cn([C@H]2C[C@H](O)[C@](CO)(n3cc(-c4ccsc4)nn3)O2)c(=O)[nH]c1=O,inactive,inactive,0,100,19,
Cc1cn([C@H]2C[C@H](O)[C@](CO)(n3cc(COc4ccc5ccccc5c4)nn3)O2)c(=O)[nH]c1=O,inactive,inactive,16,93,0,1
Cc1cn([C@H]2C[C@H](O)[C@](CO)(n3cc(-c4ccc(F)cc4)nn3)O2)c(=O)[nH]c1=O,inactive,inactive,0,95,0,
Cc1cn([C@H]2C[C@H](O)[C@](CO)(n3cc(-c4ccc(Oc5ccccc5)cc4)nn3)O2)c(=O)[nH]c1=O,inactive,inactive,48,95,1,1
Cc1cn([C@H]2C[C@H](O)[C@](CO)(n3cc(-c4ccc(N(C)C)cc4)nn3)O2)c(=O)[nH]c1=O,inactive,inactive,21,100,12,1
Cc1cn([C@H]2C[C@H](O)[C@](CO)(n3cc(-c4ccc(-c5ccccc5)cc4)nn3)O2)c(=O)[nH]c1=O,inactive,inactive,1.7,80,31,
Cc1cn([C@H]2C[C@H](O)[C@](CO)(n3cc(C4CCCCC4)nn3)O2)c(=O)[nH]c1=O,inactive,inactive,2.2,96,0,
CC(=O)Nc1ccc(-c2cn([C@]3(CO)O[C@@H](n4cc(C)c(=O)[nH]c4=O)C[C@@H]3O)nn2)cc1,inactive,inactive,54,98,0,3
Cc1cn([C@H]2C[C@H](O)[C@](CO)(n3cc(C4CC4)nn3)O2)c(=O)[nH]c1=O,inactive,inactive,0,99,0,
Cc1cn([C@H]2C[C@H](O)[C@](CO)(n3cc(C4CCCC4)nn3)O2)c(=O)[nH]c1=O,inactive,inactive,3.1,100,5,
COc1ccc2c(-c3cn([C@]4(CO)O[C@@H](n5cc(C)c(=O)[nH]c5=O)C[C@@H]4O)nn3)cccc2c1,inactive,inactive,5.3,95,0,
Cc1cn([C@H]2C[C@H](O)[C@](CO)(n3cc(C(C)O)nn3)O2)c(=O)[nH]c1=O (stereo partly specified),inactive,inactive,0,100,8,
Cc1cn([C@H]2C[C@H](O)[C@](CO)(n3cc(-c4cc5ccccc5c5ccccc45)nn3)O2)c(=O)[nH]c1=O,inactive,inactive,0,86,0,
Cc1cn([C@H]2C[C@H](O)[C@](CO)(n3cc(-c4ccccc4)nn3)O2)c(=O)[nH]c1=O,inactive,inactive,0,94,62,
COc1ccc2cc(-c3cn([C@]4(CO)O[C@@H](n5cc(C)c(=O)[nH]c5=O)C[C@@H]4O)nn3)ccc2c1,inactive,inactive,0,95,18,
COc1ccc(-c2cn([C@]3(CO)O[C@@H](n4cc(C)c(=O)[nH]c4=O)C[C@@H]3O)nn2)cc1,inactive,inactive,19,84,0,1
